Test results: ChEMBL document CHEMBL4419178, “Yap1 inhibitors that target the interaction of yap1 with oct4” (2018)
Active and inactive are the calls of the source. The calls are words filed in the database; no cut-off is given here.

Tests used:
[1] = biological target: Transcriptional coactivator YAP1 (Homo sapiens) (UniProt P46937); test: Inhibition of YAP1 in human NCI-H1650 cells assessed as disruption in YAP1/OCT4 interaction at 5 uM incubated for 72 hrs by immunoprecipitation-Westem blot assay; format: cell-based
[2] = biological target: Transcriptional coactivator YAP1 (Homo sapiens) (UniProt P46937); test: Inhibition of YAP1 in human A549 cells assessed as disruption in YAP1/OCT4 interaction at 5 uM incubated for 72 hrs by immunoprecipitation-Westem blot assay; format: cell-based
NCI-H1650 [3] = test: Inhibition of self-renewal capacity in stem-like side-population cells of human NCI-H1650 cells assessed as reduction in number of spheres at 1 to 20 uM incubated for 10 days by sphere formation assay; format: functional, cell-based
NCI-H1650 [4] = test: Cytotoxicity in human NCI-H1650 cells assessed as reduction in cell viability at 0.5 to 20 uM incubated for 72 hrs by MTT assay; format: functional, cell-based
A549 = test: Cytotoxicity in human A549 cells assessed as reduction in cell viability at 0.5 to 20 uM incubated for 72 hrs by MTT assay; format: functional, cell-based
[5] = biological target: Transcriptional coactivator YAP1 (Homo sapiens) (UniProt P46937); test: Inhibition of YAP1 in human NCI-H1650 cells assessed as reduction in Sox2 protein expression at 5 uM by luciferase reporter gene assay; format: cell-based
NCI-H1650 [6] = test: Inhibition of self-renewal capacity in stem-like side-population cells of human NCI-H1650 cells assessed as reduction in number of spheres at 5 uM incubated for 10 days by sphere formation assay relative to control; format: functional; settings: NCI-H1650, 240 h
NCI-H1703 [7] = test: Cytotoxicity in human NCI-H1703 cells assessed as reduction in cell viability at 0.5 to 20 uM incubated for 96 hrs by MTT assay; format: functional, cell-based
NCI-H226 = test: Cytotoxicity in human NCI-H226 cells assessed as reduction in cell viability at 0.5 to 20 uM incubated for 96 hrs by MTT assay; format: functional, cell-based
NCI-H1650 [8] = test: Inhibition of adherence-independent cell growth in human NCI-H1650 cells at 5 uM incubated for 33 days; format: functional, cell-based
NCI-H1650 [9] = test: Inhibition of adherence-independent cell growth in human NCI-H1650 cells at 10 uM incubated for 33 days; format: functional, cell-based
NCI-H146 [10] = test: Inhibition of self-renewal capacity in methotrexate insensitive stem-like side-population cells of human NCI-H146 cells assessed as reduction in number of spheres at 2 uM incubated for 3 days after 7 days methotrexate exposure by sphere formation assay; format: functional
HCC827 = test: Cytotoxicity in erlotinib-resistant human HCC827 cells assessed as reduction in cell viability at 1 to 20 uM by MTT assay; format: functional, cell-based
PC-9 = test: Cytotoxicity in gefitinib resistant human PC9 cells assessed as reduction in cell viability at 1 to 20 uM by MTT assay; format: functional, cell-based
NCI-H1975 = test: Cytotoxicity in gefitinib and erlotinib resistant human NCI-H1975 cells assessed as reduction in cell viability at 1 to 10 uM incubated for 72 hrs by MTT assay; format: functional, cell-based
[11] = biological target: Transcriptional coactivator YAP1 (Homo sapiens) (UniProt P46937); test: Inhibition of YAP1 in human NCI-H1650 cells assessed as suppression of Sox2 mRNA expression at 5 to 10 uM incubated for 72 hrs by RT-PCR method; format: cell-based
[12] = biological target: Transcriptional coactivator YAP1 (Homo sapiens) (UniProt P46937); test: Inhibition of YAP1 in human NCI-H1703 cells assessed as suppression of Sox2 mRNA expression at 5 to 10 uM incubated for 72 hrs by RT-PCR method; format: cell-based
[13] = biological target: Transcriptional coactivator YAP1 (Homo sapiens) (UniProt P46937); test: Inhibition of YAP1 in human NCI-H146 cells assessed as suppression of Sox2 mRNA expression at 5 to 10 uM incubated for 72 hrs by RT-PCR method; format: cell-based
NCI-H1650 [14] = test: Effect on expression of Oct4 mRNA expression in human NCI-H1650 cells at 5 to 10 uM incubated for 72 hrs by RT-PCR method; format: cell-based; settings: nci-h1650, 72 h
NCI-H1650 [15] = test: Effect on expression of Nanog mRNA expression in human NCI-H1650 cells at 5 to 10 uM incubated for 72 hrs by RT-PCR method; format: cell-based; settings: nci-h1650, 72 h
NCI-H1703 [16] = test: Effect on expression of Oct4 mRNA expression in human NCI-H1703 cells at 5 to 10 uM incubated for 72 hrs by RT-PCR method; format: cell-based; settings: nci-h1703, 72 h
NCI-H1703 [17] = test: Effect on expression of Nanog mRNA expression in human NCI-H1703 cells at 5 to 10 uM incubated for 72 hrs by RT-PCR method; format: cell-based; settings: nci-h1703, 72 h
NCI-H146 [18] = test: Effect on expression of Oct4 mRNA expression in human NCI-H146 cells at 5 to 10 uM incubated for 72 hrs by RT-PCR method; format: cell-based; settings: nci-h146, 72 h
NCI-H146 [19] = test: Effect on expression of Nanog mRNA expression in human NCI-H146 cells at 5 to 10 uM incubated for 72 hrs by RT-PCR method; format: cell-based; settings: nci-h146, 72 h
NCI-H1650 [20] = test: Inhibition of YAP1/TEAD2 interaction in human NCI-H1650 cells assessed as suppression of CTGF mRNA expression at 5 to 10 uM incubated for 72 hrs by RT-PCR method; format: cell-based
NCI-H1703 [21] = test: Inhibition of YAP1/TEAD2 interaction in human NCI-H1703 cells assessed as suppression of CTGF mRNA expression at 5 to 10 uM incubated for 72 hrs by RT-PCR method; format: cell-based
[22] = biological target: Transcriptional coactivator YAP1 (Homo sapiens) (UniProt P46937); test: Inhibition of YAP1 in human NCI-H1650 cells assessed as suppression of fibronectin mRNA expression at 5 to 10 uM incubated for 72 hrs by RT-PCR method; format: cell-based
[23] = biological target: Transcriptional coactivator YAP1 (Homo sapiens) (UniProt P46937); test: Inhibition of YAP1 in human NCI-H1650 cells assessed as suppression of vimentin mRNA expression at 5 to 10 uM incubated for 72 hrs by RT-PCR method; format: cell-based
[24] = biological target: Transcriptional coactivator YAP1 (Homo sapiens) (UniProt P46937); test: Inhibition of YAP1 in human NCI-H1703 cells assessed as suppression of fibronectin mRNA expression at 5 to 10 uM incubated for 72 hrs by RT-PCR method; format: cell-based
[25] = biological target: Transcriptional coactivator YAP1 (Homo sapiens) (UniProt P46937); test: Inhibition of YAP1 in human NCI-H1703 cells assessed as suppression of vimentin mRNA expression at 5 to 10 uM incubated for 72 hrs by RT-PCR method; format: cell-based
HUVEC = test: Inhibition of angiogenic tubule formation in HUVEC at 1 to 5 uM incubated for 18 to 24 hrs; format: functional, cell-based; settings: Homo sapiens
NCI-H1703 [26] = test: Inhibition of adherence-independent cell growth in human NCI-H1703 cells at 10 uM incubated for 33 days; format: functional, cell-based
NCI-H1703 [27] = test: Inhibition of adherence-independent cell growth in human NCI-H1703 cells at 5 uM incubated for 33 days; format: functional, cell-based
Homo sapiens [28] = species: Homo sapiens; test: Cytotoxicity in human 92-1 cells assessed as reduction in cell viability at 0.5 to 20 uM incubated for 72 hrs by MTT assay; format: functional, cell-based
SK-MEL-5 = test: Cytotoxicity in human SK-MEL-5 cells assessed as reduction in cell viability at 0.5 to 20 uM incubated for 72 hrs by MTT assay; format: functional, cell-based
Homo sapiens [29] = species: Homo sapiens; test: Cytotoxicity in human WM1366 cells assessed as reduction in cell viability at 0.5 to 20 uM incubated for 72 hrs by MTT assay; format: functional, cell-based

Chain of Transcriptional coactivator YAP1 (Homo sapiens) (P46937 whole entry): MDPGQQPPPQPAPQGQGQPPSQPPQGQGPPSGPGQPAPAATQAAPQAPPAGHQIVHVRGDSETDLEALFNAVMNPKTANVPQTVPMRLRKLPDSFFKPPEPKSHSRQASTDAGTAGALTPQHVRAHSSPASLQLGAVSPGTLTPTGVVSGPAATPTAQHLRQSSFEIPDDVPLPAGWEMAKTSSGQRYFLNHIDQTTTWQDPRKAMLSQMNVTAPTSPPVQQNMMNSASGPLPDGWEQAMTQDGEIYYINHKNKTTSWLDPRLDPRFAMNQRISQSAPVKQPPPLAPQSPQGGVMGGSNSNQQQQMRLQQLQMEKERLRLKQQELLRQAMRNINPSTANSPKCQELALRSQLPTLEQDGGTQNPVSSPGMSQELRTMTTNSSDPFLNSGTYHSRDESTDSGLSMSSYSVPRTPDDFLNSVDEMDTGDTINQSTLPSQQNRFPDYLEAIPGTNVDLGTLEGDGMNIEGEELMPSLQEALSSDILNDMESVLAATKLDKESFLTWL

COC(=O)[C@H](Cc1ccc(OCc2ccccc2)cc1)NC(=O)CC1CCN(C(=O)CCc2ccc(Cl)c(Cl)c2)CC1
inhibition [1]: Active
inhibition [2]: Active
inhibition (NCI-H1650 [3]): Active
Activity (NCI-H1650 [4]): Active
Activity (A549): Active
inhibition [5]: 85.5%
inhibition at 5 µM (NCI-H1650 [6]): 99%
Activity (NCI-H1703 [7]): Active
Activity (NCI-H226): Active
inhibition (NCI-H1650 [8]): Active
inhibition (NCI-H1650 [9]): Active
inhibition (NCI-H146 [10]): Active
Activity (HCC827): Active
Activity (PC-9): Active
Activity (NCI-H1975): Active
inhibition [11]: Active
inhibition [12]: Active
inhibition [13]: Active
Activity (NCI-H1650 [14]): Non-Toxic
Activity (NCI-H1650 [15]): Non-Toxic
Activity (NCI-H1703 [16]): Non-Toxic
Activity (NCI-H1703 [17]): Non-Toxic
Activity (NCI-H146 [18]): Non-Toxic
Activity (NCI-H146 [19]): Non-Toxic
inhibition (NCI-H1650 [20]): inactive
inhibition (NCI-H1703 [21]): inactive
inhibition [22]: Active
inhibition [23]: Active
inhibition [24]: Active
inhibition [25]: Active
inhibition (HUVEC): Active
inhibition (NCI-H1703 [26]): Active
inhibition (NCI-H1703 [27]): Active
Activity (Homo sapiens [28]): Active
Activity (SK-MEL-5): Active
Activity (Homo sapiens [29]): Active

COC(=O)[C@H](Cc1ccc(OCc2ccccc2)cc1)NC(=O)CC1CCN(C(=O)CCc2ccc(C#N)cc2)CC1
inhibition [1]: Active
inhibition [2]: Active
inhibition (NCI-H1650 [3]): Active
Activity (NCI-H1650 [4]): Active
Activity (A549): Active
inhibition [5]: 77.6%
inhibition at 5 µM (NCI-H1650 [6]): 80.2%
Activity (NCI-H1703 [7]): Active
Activity (NCI-H226): Active
inhibition (NCI-H1650 [8]): Active
inhibition (NCI-H1650 [9]): Active
inhibition (NCI-H146 [10]): Active
Activity (HCC827): Active
Activity (PC-9): Active
Activity (NCI-H1975): Active
inhibition [11]: Active
inhibition [12]: Active
inhibition [13]: Active
Activity (NCI-H1650 [14]): Non-Toxic
Activity (NCI-H1650 [15]): Non-Toxic
Activity (NCI-H1703 [16]): Non-Toxic
Activity (NCI-H1703 [17]): Non-Toxic
Activity (NCI-H146 [18]): Non-Toxic
Activity (NCI-H146 [19]): Non-Toxic
inhibition (NCI-H1650 [20]): inactive
inhibition (NCI-H1703 [21]): inactive
inhibition [22]: Active
inhibition [23]: Active
inhibition [24]: Active
inhibition [25]: Active
inhibition (HUVEC): Active
inhibition (NCI-H1703 [26]): Active
inhibition (NCI-H1703 [27]): Active
Activity (Homo sapiens [28]): Active
Activity (SK-MEL-5): Active
Activity (Homo sapiens [29]): Active
